Reference: patent publication US9862721B2, “Tetrahydrocarboline derivative” (ONO PHARMACEUTICAL CO., LTD., priority 2011, dated 2018)

Columns and labels:
[1] = target: human ENPP2 (Homo sapiens (Human), UniProt Q13822); assay: Measurement of human ENPP2 inhibitory activity; assay type: biochemical; conditions: human ENPP2, 16:0-LPC substrate, read-out: ENPP2 inhibitory activity rate (%)
Description: 10 μL of a test compound solution (10% dimethyl sulfoxide) at each concentration and 40 μL of a 5 μg/mL human ENPP2 solution (buffer A: 100 mmol/L Tris-HCl (pH 9.0), 500 mmol/L NaCl, 5 mmol/L MgCl2, 0.05% Triton X-100) were mixed, 50 μL of a 2 mmol/L 16:0-lysophosphatidylcholine (LPC) solution (buffer A) was further added to react at 37° C. for 24 hours. Subsequently, to 10 μL of the reaction solution was added 90 μL of a measurement buffer (0.5 mmol/L aminoantipyrine, 0.3 mmol/L N-ethyl-N-(2-hydroxy-3-sulfopropyl)-3-methylaniline, 1 U/mL peroxidase, 3 U/mL choline oxidase, 100 mmol/L Tris-HCl (pH 8.5), 5 mmol/L CaCl2) to react at 37° C. for 20 minutes, and spectrophotometric determination was performed at 555 nm.
Using a standard curve, a choline production amount (enzyme activity) in each test compound was calculated, and the inhibitory activity rate of each test compound was calculated, wherein the enzyme activity in a positive control to which a test compound is not added, was a 0% inhibition rate, and the enzyme activity in a negative control to which a test compound and human ENPP2 are not added, were 100% inhibition. Further, concerning the present compounds shown in Table 3, an IC50 value was calculated from inhibitory activity rate at each concentration.

[2] = system: Crl:CD (Sprague-Dawley) male rat; assay: Measurement of blood pressure and heart rate in rat under wakefulness; assay type: in vivo; conditions: conscious rat, forced oral administration, 100, 300 mg/kg, up to 180 minutes
Description: A Cr1:CD (Sparague-Dawley) male rat (Charles River Laboratories Japan, Inc., 8 weeks old) was anesthetized by inhalation of isoflurane. A catheter (INTRAMEDIC POLYETHYLENE Tubing PE50, CLAY ADAMS) was inserted and indwelled in a femoral artery and another end was exposed from dorsal skin. The rat was placed in a rearing cage for blood pressure measurement. After elapse of 2 hours or more from the insertion of the catheter, each of the compound of Reference Example 2 and the compound of Example 6(72) (dose: 100, 300 mg/kg) was forcedly orally administered, and blood pressure was measured under no anesthesia and no restraint. The blood pressure was measured by connecting the catheter inserted in the femoral artery and a blood pressure transducer (DX-360, Nihon Kohden Corporation) and passing through an amplifier for blood pressure measurement (Coupler.Amplifier PP-101H.AP-101H, Nihon Kohden Corporation). Blood pressure signals were captured into a data acquisition analysis system (HEM 3.5, NOTOCORD SYSTEM S.A.) through a polygraph system (PEG-1000, Nihon Kohden Corporation) to measure blood pressure (systolic pressure, diastolic pressure, mean blood pressure) and heart rate (measured from blood pressure pulse wave). […] The data were accumulated as measured values at respective time points and % variation values in which each value before administration was taken as 100.

Structure (SMILES) | inhibition at 1 µM [1] [%] | influence on a circulatory organ (blood pressure, heart rate) [2]
O=C(C[C@H]1CC[C@H](C(=O)O)CC1)N1CCc2c(n(Cc3csc(C(F)(F)F)c3)c3ncccc23)C1 [Example 6(13), trans-4-[2-oxo-2-(9-{[5-(trifluoromethyl)-3-thienyl]methyl}-5,6,8,9-tetrahydro-7H-pyrido[4′,3′:4,5]pyrrolo[2,3-b]pyridin-7-yl)ethyl]cyclohexanecarboxylic acid] | 99.2 | 
O=C(C[C@H]1CC[C@H](C(=O)O)CC1)N1CCc2c(n(Cc3ccc(C(F)(F)F)s3)c3ncccc23)C1 [Example 6(16), trans-4-[2-oxo-2-(9-{[5-(trifluoromethyl)-2-thienyl]methyl}-5,6,8,9-tetrahydro-7H-pyrido[4′,3′:4,5]pyrrolo[2,3-b]pyridin-7-yl)ethyl]cyclohexanecarboxylic acid] | 99 | 
CC1(C)[C@@H](CC(=O)N2CCc3c(n(Cc4cnc(C(F)(F)F)s4)c4ccccc34)C2)CC[C@@]1(C)C(=O)O [Example 6(49), (1R,3R)-1,2,2-trimethyl-3-[2-oxo-2-(9-{[2-(trifluoromethyl)-1,3-thiazol-5-yl]methyl}-1,3,4,9-tetrahydro-2H-beta-carbolin-2-yl)ethyl]cyclopentanecarboxylic acid] | 99.1 | 
O=C(CC12CCC(C(=O)O)(CC1)C2)N1CCc2c(n(Cc3ccc(C(F)(F)F)cc3)c3ncccc23)C1 [Example 6(68), 4-(2-oxo-2-{9-[4-(trifluoromethyl)benzyl]-5,6,8,9-tetrahydro-7H-pyrido[4′,3′:4,5]pyrrolo[2,3-b]pyridin-7-yl}ethyl)bicyclo[2.2.1]heptane-1-carboxylic acid] | 99.2 | 
CCc1cccc(Cn2c3c(c4cccnc42)CCN(C(=O)CC24CCC(C(=O)O)(CC2)C4)C3)c1 [Example 6(72), 4-{2-[9-(3-ethylbenzyl)-5,6,8,9-tetrahydro-7H-pyrido[4′,3′:4,5]pyrrolo[2,3-b]pyridin-7-yl]-2-oxoethyl}bicyclo[2.2.1]heptane-1-carboxylic acid] | 99.3 | no influence
CC1(C(=O)O)CCN(CC(=O)N2CCc3c(n(Cc4ccc(C(F)(F)F)s4)c4ncccc34)C2)CC1 [Example 7(39), 4-methyl-1-[2-oxo-2-(9-{[5-(trifluoromethyl)-2-thienyl]methyl}-5,6,8,9-tetrahydro-7H-pyrido[4′,3′:4,5]pyrrolo[2,3-b]pyridin-7-yl)ethyl]-4-piperidinecarboxylic acid] | 99.5 | 
C[C@]1(C(=O)O)CC[C@H](CC(=O)N2CCc3c(n(Cc4cnc(C(F)(F)F)s4)c4ncccc34)C2)CC1 [Example 10(5), trans-1-methyl-4-[2-oxo-2-(9-{[2-(trifluoromethyl)-1,3-thiazol-5-yl]methyl}-5,6,8,9-tetrahydro-7H-pyrido[4′,3′:4,5]pyrrolo[2,3-b]pyridin-7-yl)ethyl]cyclohexanecarboxylic acid] | 97.4 | 
O=C(C[C@H]1CC[C@H](C(=O)O)CC1)N1CCc2c(n(Cc3ccc(F)cc3F)c3ncccc23)C1 [Reference Example 2, trans-4-{2-[9-(2,4-difluorobenzyl)-5,6,8,9-tetrahydro-7H-pyrido[4′,3′:4,5]pyrrolo[2,3-b]pyridin-7-yl}-2-oxoethyl}cyclohexanecarboxylic acid, reference compound] |  | An influence of the compound of Reference Example 2 on a circulatory organ was observed
